Test results published in patent US20230357313A1, “SERUM RESISTANT BIS-SULFHYDRYL SPECIFIC BIOTINYLATION REAGENT” (Miltenyi Biotec B.V. & Co. KG, priority 2022, published 2023).

Biological target: T1, biotinidase (Homo sapiens, UniProt P43251)
T1 construct: from tissue
T1 sequence (P43251 22-523): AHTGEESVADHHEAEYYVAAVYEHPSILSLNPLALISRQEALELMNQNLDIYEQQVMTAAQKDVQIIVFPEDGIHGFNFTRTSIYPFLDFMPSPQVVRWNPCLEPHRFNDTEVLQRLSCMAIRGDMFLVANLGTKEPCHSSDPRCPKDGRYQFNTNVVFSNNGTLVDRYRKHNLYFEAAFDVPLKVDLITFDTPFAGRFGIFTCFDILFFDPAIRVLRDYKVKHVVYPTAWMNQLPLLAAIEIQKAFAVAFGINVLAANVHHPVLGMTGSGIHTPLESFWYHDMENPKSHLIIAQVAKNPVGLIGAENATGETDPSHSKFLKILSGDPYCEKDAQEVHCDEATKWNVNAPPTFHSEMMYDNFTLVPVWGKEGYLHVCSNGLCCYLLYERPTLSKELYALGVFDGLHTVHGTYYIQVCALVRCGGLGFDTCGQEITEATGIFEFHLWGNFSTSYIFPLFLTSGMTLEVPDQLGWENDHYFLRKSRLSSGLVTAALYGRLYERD
Assay: Biotinidase inhibitor experiment: MS9 anti-CD33 Fab in human serum with or without inhibitor, LC-MS
Type: biochemical
Settings: 1 mM in human serum, 4 h at 37° C.
Description: To verify that biotinidase, an enzyme found in the human body amongst other in human serum, causes the cleavage of the biotinamide bond an experiment was performed with a biotinidase inhibitor ((+) Biotin 4 Amidobenzoic Acid, Cayman, CAS. 102418-74-6). Therefore (+) Biotin 4 Amidobenzoic Acid was added at a concentration of 1 mM into the pre-incubation mix containing the human serum. As control no inhibitor was added. The anti-CD33 Fab with MS9 was pre-incubated for 4 hours at 37° C. Subsequently after the incubation the samples were purified via an IgG-CHI Affinity matrix as previously described.
FIG. 5A and FIG. 5B show biotinidase as causative agent for instability of linker in non-heat inactivated serum. Biotinylated (MS9) anti-CD33 FAbs were incubated in freshly prepared human serum for 4 h at 37° C. in the presence (left panel) or absence (right panel) of 1 mM Biotin 4-amidobenzoic acid.

O=C(CCCC[C@@H]1SC[C@@H]2NC(=O)N[C@@H]21)Nc1ccc(C(=O)[O-])cc1.[Na+] [Biotin 4-amidobenzoic acid, (+) Biotin 4 Amidobenzoic Acid]
effect of biotinidase inhibitor on biotinamide bond degradation: protects the biotinamide bond from degradation
